Entries after “also recorded” stand apart in the source; their conditions may differ.
Experiments:
Assay type in all cases: in vivo
PPAR-gamma receptor = target: T1, PPAR-gamma receptor (Rattus norvegicus, UniProt O88275); test: carrageenan-induced rat paw edema with PPAR-gamma antagonist GW9662, residence time of the paw on the hot plate
T1 construct: from tissue; host or cells: live rat (in vivo, paw edema model)
T1 sequence (O88275 1-505): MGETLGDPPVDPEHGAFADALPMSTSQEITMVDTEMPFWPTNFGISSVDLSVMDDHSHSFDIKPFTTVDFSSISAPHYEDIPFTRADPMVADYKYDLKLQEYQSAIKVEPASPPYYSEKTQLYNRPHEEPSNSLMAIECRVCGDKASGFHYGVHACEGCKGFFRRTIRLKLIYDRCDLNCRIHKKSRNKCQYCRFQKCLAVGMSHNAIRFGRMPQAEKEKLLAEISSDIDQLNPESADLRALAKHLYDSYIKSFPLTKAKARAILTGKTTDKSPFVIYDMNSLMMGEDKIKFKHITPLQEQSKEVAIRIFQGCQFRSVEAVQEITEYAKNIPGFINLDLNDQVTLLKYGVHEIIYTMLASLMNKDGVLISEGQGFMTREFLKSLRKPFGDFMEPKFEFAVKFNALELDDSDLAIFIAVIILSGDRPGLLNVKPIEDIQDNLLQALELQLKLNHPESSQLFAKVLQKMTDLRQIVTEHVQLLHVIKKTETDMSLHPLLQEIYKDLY
Procedure: The experimental model of carrageenan-induced rat paw edema is as shown above. In this experiment, the effect was assessed by measuring the residence time of the animal's paw on the hot plate, thus obtaining percentage data with respect to the control treated with carrageenan alone.
The rats (10 animals per group) were divided into the following experimental groups: • CAR+physiological solution; • CAR+GW9662 (1 mg/kg)+Adelmidrol (10 mg/kg); GW9662 was administered i.p. 30 min before injecting CAR and Adelmidrol (i.p.) when injecting CAR; • CAR+Adelmidrol (10 mg/kg); Adelmidrol was administered i.p. when injecting CAR.

[1] = tested on: carrageenan-induced rat paw edema; test: carrageenan-induced rat paw edema, foot volume by plethysmometer
Procedure: The experimental model of carrageenan-induced rat paw edema was used.
The experimental model of carrageenan-induced paw edema was induced by sub-plantarily injecting a solution of carrageenan (containing 50 μl of sterile saline containing 1% carrageenan) in the animal's right paw (rat).
The foot volume was measured at specific time intervals by means of a plethysmometer (Ugo Basile, Milan, Italy). The increase in plantar volume was assessed as the difference between the value obtained at the specific time intervals and the volume at baseline (time 0) measured immediately before the administration of carrageenan.
The rats (10 animals per group) were divided into the following experimental groups: • CAR+physiological solution; • CAR+Adelmidrol (3 mg/kg); Adelmidrol was administered i.p. when injecting CAR; • CAR+Adelmidrol (10 mg/kg); Adelmidrol was administered i.p. when injecting CAR.

[2] = tested on: MIA-induced articular cartilage erosion; test: monosodium iodoacetate (MIA)-induced articular lesion, cartilage erosion by stereomicroscope; conditions: Adelmidrol 150 μg/25 μL i.a.
Procedure: FIG. 1A. Images obtained by a stereomicroscope on the state of erosion of the interposed cartilage in the right knee of each experimental group: control, MIA, Adelmidrol 150 μg/25 μL i.a. The analysis was performed 21 days after the induction of the disease.
FIG. 1B. Effect of the treatment with Adelmidrol 150 μg/25 μL i.a. on the erosive lesion of the interposed cartilage upon injection of MIA, compared to MIA and control groups treated with the solvent;
A microscopic analysis of the lesion related to the articular cartilage was performed by comparing the erosive lesion of the articular cartilage between the following groups: animals not treated with MIA, animals treated with MIA+solvent, and animals treated with MIA+solvent added with Adelmidrol. […] In the image corresponding to the animal damaged through MIA, an extensive cartilage erosion is apparent, which also allows to distinguish the subchondral bone, unlike the animal control whose joint is in excellent condition. […] Each image was given a score from 0 to 4 (0=normal; 4=maximum degree of injury severity) expressing the articular cartilage lesion in terms of increasing severity (Janusz M J et al. Ostearthritis and Cartilage 2001; 9:751-760), as described by Guingamp et al. (Guingamp C. et al. Arthritis & Rheumatism 1997; Vol 40 No 9:1670-1679).

[3] = tested on: carrageenan-induced edema in PPAR-α-WT and KO mice; test: carrageenan-induced edema in PPAR-alpha knock-out mice; conditions: Adelmidrol 10 mg/kg i.p.; for edema as a percentage with respect to the edema produced by carrageenan alone: PPAR-α-WT and KO mice
Procedure: In order to verify a possible involvement of PPAR-alpha receptor, the edema induced by carrageenan in the manners described above was carried out on PPAR-alpha knock-out mice (PPAR-α-WT and KO).
PPAR-α-WT and KO mice (10 animals per group) were divided into the following experimental groups: • CAR+physiological solution; • CAR+Adelmidrol (10 mg/kg); Adelmidrol was administered i.p. when injecting CAR.

## O=C(CCCCCCCC(=O)NCCO)NCCO [Adelmidrol, azelaic acid diethanolamide]
PPAR-gamma receptor; Adelmidrol 10 mg/kg ip alone, 0 min.
  residence time of the paw on the hot plate, percentage with respect to the control treated with carrageenan alone: 107.4 percentage
PPAR-gamma receptor; Adelmidrol 10 mg/kg ip alone, 30 min
  residence time of the paw on the hot plate, percentage with respect to the control treated with carrageenan alone: 98.5 percentage
PPAR-gamma receptor; Adelmidrol 10 mg/kg ip alone, 1 hr
  residence time of the paw on the hot plate, percentage with respect to the control treated with carrageenan alone: 123.2 percentage
PPAR-gamma receptor; Adelmidrol 10 mg/kg ip alone, 2 hr
  residence time of the paw on the hot plate, percentage with respect to the control treated with carrageenan alone: 134.2 percentage
PPAR-gamma receptor; Adelmidrol 10 mg/kg ip alone, 3 hr
  residence time of the paw on the hot plate, percentage with respect to the control treated with carrageenan alone: 146.8 percentage
PPAR-gamma receptor; Adelmidrol 10 mg/kg ip alone, 4 hr
  residence time of the paw on the hot plate, percentage with respect to the control treated with carrageenan alone: 197.7 percentage
PPAR-gamma receptor; Adelmidrol 10 mg/kg ip alone, 5 hr
  residence time of the paw on the hot plate, percentage with respect to the control treated with carrageenan alone: 175.0 percentage
PPAR-gamma receptor; GW9662 1 mg/kg i.p. 30 min before CAR + Adelmidrol 10 mg/kg i.p., 0 min.
  residence time of the paw on the hot plate, percentage with respect to the control treated with carrageenan alone: 105.2 percentage
PPAR-gamma receptor; GW9662 1 mg/kg i.p. 30 min before CAR + Adelmidrol 10 mg/kg i.p., 30 min
  residence time of the paw on the hot plate, percentage with respect to the control treated with carrageenan alone: 96.2 percentage
PPAR-gamma receptor; GW9662 1 mg/kg i.p. 30 min before CAR + Adelmidrol 10 mg/kg i.p., 1 hr
  residence time of the paw on the hot plate, percentage with respect to the control treated with carrageenan alone: 102.4 percentage
PPAR-gamma receptor; GW9662 1 mg/kg i.p. 30 min before CAR + Adelmidrol 10 mg/kg i.p., 2 hr
  residence time of the paw on the hot plate, percentage with respect to the control treated with carrageenan alone: 104.1 percentage
PPAR-gamma receptor; GW9662 1 mg/kg i.p. 30 min before CAR + Adelmidrol 10 mg/kg i.p., 3 hr
  residence time of the paw on the hot plate, percentage with respect to the control treated with carrageenan alone: 111.3 percentage
PPAR-gamma receptor; GW9662 1 mg/kg i.p. 30 min before CAR + Adelmidrol 10 mg/kg i.p., 4 hr
  residence time of the paw on the hot plate, percentage with respect to the control treated with carrageenan alone: 114.1 percentage
PPAR-gamma receptor; GW9662 1 mg/kg i.p. 30 min before CAR + Adelmidrol 10 mg/kg i.p., 5 hr
  residence time of the paw on the hot plate, percentage with respect to the control treated with carrageenan alone: 112.5 percentage
[1]; 3 and 10 mg/kg i.p.
  effect on carrageenan-induced edema (in words): reduction of the carrageenan-induced edema with a dose-dependent action
[1]; Adelmidrol 3 mg/kg i.p. when injecting CAR, 0 min.
  paw edema as a percentage with respect to the edema produced by carrageenan alone: 101.2 percentage
[1]; Adelmidrol 3 mg/kg i.p. when injecting CAR, 30 min
  paw edema as a percentage with respect to the edema produced by carrageenan alone: 86.7 percentage
[1]; Adelmidrol 3 mg/kg i.p. when injecting CAR, 1 hr
  paw edema as a percentage with respect to the edema produced by carrageenan alone: 71.9 percentage
[1]; Adelmidrol 3 mg/kg i.p. when injecting CAR, 2 hr
  paw edema as a percentage with respect to the edema produced by carrageenan alone: 72.3 percentage
[1]; Adelmidrol 3 mg/kg i.p. when injecting CAR, 3 hr
  paw edema as a percentage with respect to the edema produced by carrageenan alone: 69.8 percentage
[1]; Adelmidrol 3 mg/kg i.p. when injecting CAR, 4 hr
  paw edema as a percentage with respect to the edema produced by carrageenan alone: 67.2 percentage
[1]; Adelmidrol 3 mg/kg i.p. when injecting CAR, 5 hr
  paw edema as a percentage with respect to the edema produced by carrageenan alone: 67.4 percentage
[1]; Adelmidrol 10 mg/kg i.p. when injecting CAR, 0 min.
  paw edema as a percentage with respect to the edema produced by carrageenan alone: 102.6 percentage
[1]; Adelmidrol 10 mg/kg i.p. when injecting CAR, 30 min
  paw edema as a percentage with respect to the edema produced by carrageenan alone: 81.6 percentage
[1]; Adelmidrol 10 mg/kg i.p. when injecting CAR, 1 hr
  paw edema as a percentage with respect to the edema produced by carrageenan alone: 68.7 percentage
[1]; Adelmidrol 10 mg/kg i.p. when injecting CAR, 2 hr
  paw edema as a percentage with respect to the edema produced by carrageenan alone: 63.8 percentage
[1]; Adelmidrol 10 mg/kg i.p. when injecting CAR, 3 hr
  paw edema as a percentage with respect to the edema produced by carrageenan alone: 53.6 percentage
[1]; Adelmidrol 10 mg/kg i.p. when injecting CAR, 4 hr
  paw edema as a percentage with respect to the edema produced by carrageenan alone: 49.5 percentage
[1]; Adelmidrol 10 mg/kg i.p. when injecting CAR, 5 hr
  paw edema as a percentage with respect to the edema produced by carrageenan alone: 49.5 percentage
[2]; 21 days after induction with MIA
  cartilage erosion of the tibial plateau, stereomicroscope image (FIG. 1A): clear protection against cartilage erosion
[2]; compared to MIA + solvent
  cartilage erosion, quantitative analysis of score 0 to 4 (FIG. 1B): noticeably slow down the cartilage erosion in a statistically significant manner
[3]; PPAR-alpha knock-out mice
  protective action on carrageenan-induced edema in the absence of the PPAR-alpha receptor: did not alter the protective action of Adelmidrol; also recorded: shows activity on the carrageenan-induced edema in mice genetically lacking the PPAR-alpha receptor
[3]; 0 min.
  edema as a percentage with respect to the edema produced by carrageenan alone: 102.4 percentage
[3]; 30 min
  edema as a percentage with respect to the edema produced by carrageenan alone: 81.9 percentage
[3]; 1 hr
  edema as a percentage with respect to the edema produced by carrageenan alone: 69.2 percentage
[3]; 2 hr
  edema as a percentage with respect to the edema produced by carrageenan alone: 63.9 percentage
[3]; 3 hr
  edema as a percentage with respect to the edema produced by carrageenan alone: 55.6 percentage
[3]; 4 hr
  edema as a percentage with respect to the edema produced by carrageenan alone: 51.4 percentage
[3]; 5 hr
  edema as a percentage with respect to the edema produced by carrageenan alone: 50.3 percentage
